Patent publication US20180110747A1, “USE OF THIA OXO COMPOUNDS FOR LOWERING APO C3” (Pronova Biopharma Norge AS, priority 2015, published 2018)

What was measured:
[1] = tested on: plasma apoC-III and other lipid parameters; assay: Example 25A Phase II clinical study, severe hypertriglyceridemia (TG above 500 mg/dL), 12 weeks; assay type: in vivo, human; conditions: 600 mg QD
Protocol: This study investigated patients with fasting plasma triglyceride levels above 500 mg/dL The primary objective of this study was to evaluate the efficacy of Compound A (Example 2) 600 mg once daily (QD) orally by assessment of the percentage change in triglycerides (TG) from baseline after 12 weeks of treatment. One of the secondary objectives was to evaluate the impact of Compound A on plasma levels of apoC-III.
This Phase II, multicenter, proof of concept study consisted of a 6- to 8-week screening period (which included a 4- or 6-week diet and lifestyle stabilization/washout period and a 2-week TG qualifying period), and a 12-week, double-blind, randomized, parallel group, placebo-controlled treatment period.
After confirmation of qualifying fasting TG values, eligible subjects entered the 12-week, randomized, double-blind treatment period. At Visit 4 (Week 0), subjects were randomly assigned in a 1:1 ratio to 1 of the following treatment groups: Compound A 600 mg QD or placebo QD.
Approximately 43 subjects per treatment group (approximately 86 subjects total) were to be randomized in this study. Stratification was by baseline TG level (≤700 mg/dL or >700 mg/dL), statin use at randomization, and gender.
The population for this study was men and women (women of childbearing potential were required to use adequate methods to avoid pregnancy) between the ages of 18 to 79 years of age, inclusive. Subjects on stable lipid-lowering statin therapy and subjects not on non-statin therapy were eligible to enroll in the study. Subjects were required to have an average fasting TG level ≥500 mg/dL, and ≤1500 mg/dL from Visit 2 and Visit 3 values or Visit 3 and Visit 3.1 values prior to randomization.
The ITT Population was the primary analysis population, All efficacy analyses were performed on the ITT Population.
(§1) Summary statistics (n, mean, standard deviation [SD], median, minimum, and maximum) for the baseline and post-baseline measurements, the percent changes, or changes from baseline were presented by treatment group and by visit for all efficacy variables analyzed.
The primary efficacy analysis was performed using an analysis of covariance (ANCOVA) model with treatment, gender, and the use of statin therapy at randomization as factors and baseline TG value as a covariate. The least-squares means, standard errors, and 2-tailed 95% confidence intervals (CIs) for each treatment group and for the comparison between Compound A and placebo were provided.
An ANCOVA model was used for the analysis of secondary efficacy variables with treatment, gender, and the use of statin therapy at randomization as factors and the baseline value of the respective efficacy variable as a covariate.
The population recruited for the current study included men (69.0%) and women (31.0%) with a mean age of 52.5 years. approximately 21% of subjects in both treatment groups received statin therapy through the study. All other non-statin lipid-altering medications were discontinued at screening. Mean compliance to study medication during the study was 96.5% for the placebo group and 99.9% for the Compound A 600 mg group.

apoC-III = assay: Hepatic apoC-III gene expression in APOE*3Leiden transgenic mice on Western-type diet; assay type: in vivo, mouse; conditions: 0.3 mmol/kg bw/day orally as admix to WTD, 4 weeks
Description: The APOE*3Leiden transgenic mouse is expressing a variant of the human apolipoprotein E3 (APOE3), the APOE*3Leiden, in addition to the human apolipoprotein C1 (APOC1). […] In contrast to normal wild-type mice, the APOE*3Leiden transgenic mice are highly responsive to diet and hypolipidemic drugs affecting plasma VLDL and chylomicron levels (Van Vlijmen B et al, Diet-induced hyperlipoproteinemia and atherosclerosis in apolipoprotein E3-Leiden transgenic mice, J Clin Invest 1994; 93: 1403-1410; Groot PHE, et al. Quantitative assessment of aortic atherosclerosis in apoE3Leiden transgenic mice and its relationship to serum cholesterol exposure, Arterioscler Thromb Vase Biol 1996; 16: 926-933). Consequently, this model is appropriate to evaluate effects of lipid lowering drugs.
In this study, female APOE*3Leiden transgenic mice were put on a semi-synthetic Western-type diet (WTD; 15% cocoa butter, 40% sucrose and 0.25% cholesterol; all w/w). […]
Liver tissues were stored in RNA later (Qiagen) at −80° C. […] Each sample was measured in 3 parallels, and the results are presented as the mean value relative to control (WTD without addition), The fold change in gene expression was calculated by the ΔΔCt method, using Rplp0 as housekeeping gene and the mean of the control samples as calibrator.

[2] = tested on: plasma apoC-III and other lipid parameters; assay: Example 25B Phase II clinical study, mixed dyslipidemia (TG 200-499 mg/dL) on statins, 12 weeks; assay type: in vivo, human; conditions: 600 mg QD
Protocol: This study investigated patients with fasting plasma TG levels between 200 and 499 mg/dL and non-high density lipoprotein cholesterol (non-HDL-C) above 130 mg/dL already receiving treatment with statins. The primary objective of this study was to evaluate the efficacy of Compound A (Example 2) 600 mg QD orally by assessment of the percentage change in triglycerides non-HDL-C from baseline after 12. weeks of treatment. One of the secondary objectives was to evaluate the impact of Compound A on plasma levels of apoC-III.
This Phase II, multicenter, proof of concept study consisted of a 6- to 8-week screening period (which included a 4- or 6-week diet and lifestyle stabilization/washout period and a 2-week TG and non-HDL-C qualifying period), and a 12-week, double-blind, randomized, parallel group, placebo-controlled treatment period.
After confirmation of qualifying fasting TG and non-HDL-C values, eligible subjects entered the 12-week, randomized, double-blind treatment period. At Visit 4 (Week 0), subjects were randomly assigned in a 1:1 ratio to 1 of the following treatment groups: Compound A 600 mg QD or placebo QD.
The population for this study was men and women (women of childbearing potential were required to use adequate methods to avoid pregnancy) between the ages of 18 to 79 years of age, inclusive. Subjects on stable lipid-lowering statin therapy and subjects not on non-statin lipid-lowering therapy were eligible to enroll in the study. Subjects were required to have an average fasting TG level between […] and non-HDL-C values above 130 mg/dL from Visit 2 and Visit 3 values or Visit 3 and Visit 3.1 values prior to randomization.
The ITT Population was the primary analysis population. All efficacy analyses were performed on the ITT Population.
as §1
The primary efficacy analysis was performed using an ANCOVA model with randomization as factor and baseline non-HDL-C value as a covariate. The least-squares means, standard errors, and 2-tailed 95% CIs for each treatment group and for the comparison between Compound A and placebo were provided.
The primary efficacy analysis was based on the […].
The population recruited for the current study included men (58.4%) and women ([…]) with a mean age of 58.3 years. All subjects were required to be on statin therapy (with or without ezetimibe) during the study. All other non-statin lipid-altering medications were discontinued at screening. Mean compliance to study medication during the study was 97.2% for the placebo group and 95.3% for the Compound A group.
The baseline mean non-HDL-C level for the study population was 165.9 mg/dL; the baseline median TG level was 262.0 mg/dL.

Apo C-III = assay: Example 25C Phase Ib clinical study, hypercholesterolemia, 4 weeks; assay type: in vivo, human; conditions: 600 mg QD, male hypercholesterolemic subjects withdrawn from statin, statistically significant
Protocol: This study investigated subjects with fasting LDL-C of at least […] (˜97 mg/dl). The objective of the study was to determine the pharmacodynamics and lipid lowering effects of Compound A (Example 2) following 4 weeks of treatment in male, hypercholesterolemic subjects withdrawn from stable statin therapy.
The population for this study consisted of men between 18 and 65 years of any ethnic origin and with a BMI between 18.0 and 35.0 kg/m^2.
This Phase Ib study consisted of a 4-5 week screening period, and a 4 week double-blind, randomized, placebo-controlled treatment period.
All subjects had to be on lipid-lowering statin therapy for at least 3 months prior to the first screening visit, and at stable statin dose for at least 4 weeks prior to the first screening vist.
Statin treatment was withdrawn at the first screening visit, and remained withdrawn for the entire screening period. […]
Blood lipids were measured at the end of the screening period and after 4 weeks of treatment, Exploratory pharmacodynamic measurements included LDL-C, VLDL-C, TC, TO, HDL-C, Non-HDL-C, and Apo B. The impact of Compound A on Apo C-III was also measured.
Summary statistics for baseline is given as mean with coefficient of variance. The mean changes from baseline with 95% confidence intervals were presented by treatment group for efficacy variables analyzed. […]

[3] = In-vitro digestion studies in a bio relevant media; assay type: in vitro ADME
Description: Examples 1-23 are exemplary and one skilled in the art would understand how to apply these general methods to arrive at other compounds within the scope of Formula (I). Compounds of the present disclosure may be in the form of a pharmaceutically acceptable salt or ester. For example, the compounds of Formula (I) may be in the form of esters, such as a phospholipid, a glyceride or a C1-C6-alkyl ester. In at least one embodiment, the ester is chosen from a glyceride or a C1-C6-alkyl ester. In at least one embodiment, the ester is chosen from a triglyceride, a 1,2 diglyceride, a 1,3-diglyceride, a 1-monoglyceride, a 2-monoglyceride, a methyl ester, an ethyl ester, a propyl ester, a isopropyl ester, a n-butyl ester and a tert-butyl ester. In at least one embodiment, the compound of Formula (I) is present as a methyl ester, an ethyl ester, an isopropyl ester, a n-butyl ester or a tert-butyl ester, for example as a methyl ester or an ethyl ester.

[4] = subjects with TG >500 mg/dl, 12 weeks
[5] = mixed dyslipidemia, TG = 200-499 mg/dl, on statin, 12 weeks

CC/C=C\C/C=C\C/C=C\C/C=C\C/C=C\CCCCOC(CC)C(=O)O (centres unmarked) [Compound A, 2-((5Z,8Z,11Z,14Z,17Z)-icosa-5,8,11,14,17-pentaen-1-yloxy)butanoic acid]
LS mean percent change in apoC-III versus placebo ([1]; 12 weeks, ITT Population, 95% CI (−46.5, −22.8)): −34.7%
LS mean percent change in apoC-III vs baseline ([1]; 12 weeks, ITT Population, 95% CI (−47.5, −28.5)): −38.0%
median reduction in apoC-III ([1]; severe HTG patient population): 41%
ApoC-III, median % change from baseline [1, 4]: −41%
HDL-C, median % change from baseline [1, 4]: 24%
LDL-C, median % change from baseline [1, 4]: 43%
Non-HDL-C, median % change from baseline [1, 4]: −8%
TG, median % change from baseline [1, 4]: −51%
VLDL-C, median % change from baseline [1, 4]: −51%
effect on hepatic apoC-III expression compared with reference Compound 12 (apoC-III): more potent
hepatic apoC-III expression versus mice fed a standard WTD (FIG. 1) (apoC-III; P<0.05, Student T-test): significantly lower
LS mean percent change in ApoC-III vs placebo ([2]; 12-week completer population, 95% CI (−28.8, −12.7)): −20.8%
LS mean percent change in apoC-III vs baseline ([2]; 12-week completer population, 95% CI (−38.4, −26.6)): −32.5%
Apo B, median % change from baseline [2, 5]: −6%
ApoC-III, median % change from baseline [2, 5]: −35%
LDL-C, median % change from baseline [2, 5]: 0%
Non-HDL-C, median % change from baseline [2, 5]: −10%
TG, median % change from baseline [2, 5]: −43%
VLDL-C, median % change from baseline [2, 5]: −39%
median reduction in apoC-III ([2]; mixed dyslipidemic patient population): 35%
mean percent change in Apo C-III vs baseline (Apo C-III): −42%

CC/C=C\C/C=C\C/C=C\C/C=C\C/C=C\CCCCOC(CC)C(=O)OCC (centres unmarked) [Example 12, ethyl 2-((5Z,8Z,11Z,14Z,17Z)-icosa-5,8,11,14,17-pentaen-1-yloxy)butanoate]
hydrolysis in the gastrointestinal tract, from in-vitro digestion [3]: rapidly hydrolyzed

CC/C=C\C/C=C\C/C=C\C/C=C\C/C=C\CCCCOC(CC)C(=O)OCCCC (centres unmarked) [Example 15, butyl 2-(((5Z,8Z,11Z,14Z,17Z)-icosa-5,8,11,14,17-pentaen-1-yl)oxy)butanoate]
hydrolysis in the gastrointestinal tract, from in-vitro digestion [3]: rapidly hydrolyzed
